Experimental data as given in patent US20090118332A1, “Therapeutic Agents - 551” (AstraZeneca AB, priority 2006, published 2009).

Target: T1, human Fatty Acid Synthase (Homo sapiens, UniProt P49327)
T1 construct: made in house
Assay: Human FAS enzyme assay (decrease in NADPH fluorescence)
Format: biochemical
Conditions: % inhibition at a concentration of 100 μmolar
Method in brief: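 In-house human FAS was preincubated with compound and NADPH for 15 min at room temperature in 0.1 M Tris pH 7.5 with EDTA, glutathione and BSA. Malonyl CoA and acetyl CoA (500 μM and 150 μM in the added mix) were then added for 60 min. IC50 came from time-zero-subtracted NADPH fluorescence (340/460 nm).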

T1 sequence (P49327 whole entry): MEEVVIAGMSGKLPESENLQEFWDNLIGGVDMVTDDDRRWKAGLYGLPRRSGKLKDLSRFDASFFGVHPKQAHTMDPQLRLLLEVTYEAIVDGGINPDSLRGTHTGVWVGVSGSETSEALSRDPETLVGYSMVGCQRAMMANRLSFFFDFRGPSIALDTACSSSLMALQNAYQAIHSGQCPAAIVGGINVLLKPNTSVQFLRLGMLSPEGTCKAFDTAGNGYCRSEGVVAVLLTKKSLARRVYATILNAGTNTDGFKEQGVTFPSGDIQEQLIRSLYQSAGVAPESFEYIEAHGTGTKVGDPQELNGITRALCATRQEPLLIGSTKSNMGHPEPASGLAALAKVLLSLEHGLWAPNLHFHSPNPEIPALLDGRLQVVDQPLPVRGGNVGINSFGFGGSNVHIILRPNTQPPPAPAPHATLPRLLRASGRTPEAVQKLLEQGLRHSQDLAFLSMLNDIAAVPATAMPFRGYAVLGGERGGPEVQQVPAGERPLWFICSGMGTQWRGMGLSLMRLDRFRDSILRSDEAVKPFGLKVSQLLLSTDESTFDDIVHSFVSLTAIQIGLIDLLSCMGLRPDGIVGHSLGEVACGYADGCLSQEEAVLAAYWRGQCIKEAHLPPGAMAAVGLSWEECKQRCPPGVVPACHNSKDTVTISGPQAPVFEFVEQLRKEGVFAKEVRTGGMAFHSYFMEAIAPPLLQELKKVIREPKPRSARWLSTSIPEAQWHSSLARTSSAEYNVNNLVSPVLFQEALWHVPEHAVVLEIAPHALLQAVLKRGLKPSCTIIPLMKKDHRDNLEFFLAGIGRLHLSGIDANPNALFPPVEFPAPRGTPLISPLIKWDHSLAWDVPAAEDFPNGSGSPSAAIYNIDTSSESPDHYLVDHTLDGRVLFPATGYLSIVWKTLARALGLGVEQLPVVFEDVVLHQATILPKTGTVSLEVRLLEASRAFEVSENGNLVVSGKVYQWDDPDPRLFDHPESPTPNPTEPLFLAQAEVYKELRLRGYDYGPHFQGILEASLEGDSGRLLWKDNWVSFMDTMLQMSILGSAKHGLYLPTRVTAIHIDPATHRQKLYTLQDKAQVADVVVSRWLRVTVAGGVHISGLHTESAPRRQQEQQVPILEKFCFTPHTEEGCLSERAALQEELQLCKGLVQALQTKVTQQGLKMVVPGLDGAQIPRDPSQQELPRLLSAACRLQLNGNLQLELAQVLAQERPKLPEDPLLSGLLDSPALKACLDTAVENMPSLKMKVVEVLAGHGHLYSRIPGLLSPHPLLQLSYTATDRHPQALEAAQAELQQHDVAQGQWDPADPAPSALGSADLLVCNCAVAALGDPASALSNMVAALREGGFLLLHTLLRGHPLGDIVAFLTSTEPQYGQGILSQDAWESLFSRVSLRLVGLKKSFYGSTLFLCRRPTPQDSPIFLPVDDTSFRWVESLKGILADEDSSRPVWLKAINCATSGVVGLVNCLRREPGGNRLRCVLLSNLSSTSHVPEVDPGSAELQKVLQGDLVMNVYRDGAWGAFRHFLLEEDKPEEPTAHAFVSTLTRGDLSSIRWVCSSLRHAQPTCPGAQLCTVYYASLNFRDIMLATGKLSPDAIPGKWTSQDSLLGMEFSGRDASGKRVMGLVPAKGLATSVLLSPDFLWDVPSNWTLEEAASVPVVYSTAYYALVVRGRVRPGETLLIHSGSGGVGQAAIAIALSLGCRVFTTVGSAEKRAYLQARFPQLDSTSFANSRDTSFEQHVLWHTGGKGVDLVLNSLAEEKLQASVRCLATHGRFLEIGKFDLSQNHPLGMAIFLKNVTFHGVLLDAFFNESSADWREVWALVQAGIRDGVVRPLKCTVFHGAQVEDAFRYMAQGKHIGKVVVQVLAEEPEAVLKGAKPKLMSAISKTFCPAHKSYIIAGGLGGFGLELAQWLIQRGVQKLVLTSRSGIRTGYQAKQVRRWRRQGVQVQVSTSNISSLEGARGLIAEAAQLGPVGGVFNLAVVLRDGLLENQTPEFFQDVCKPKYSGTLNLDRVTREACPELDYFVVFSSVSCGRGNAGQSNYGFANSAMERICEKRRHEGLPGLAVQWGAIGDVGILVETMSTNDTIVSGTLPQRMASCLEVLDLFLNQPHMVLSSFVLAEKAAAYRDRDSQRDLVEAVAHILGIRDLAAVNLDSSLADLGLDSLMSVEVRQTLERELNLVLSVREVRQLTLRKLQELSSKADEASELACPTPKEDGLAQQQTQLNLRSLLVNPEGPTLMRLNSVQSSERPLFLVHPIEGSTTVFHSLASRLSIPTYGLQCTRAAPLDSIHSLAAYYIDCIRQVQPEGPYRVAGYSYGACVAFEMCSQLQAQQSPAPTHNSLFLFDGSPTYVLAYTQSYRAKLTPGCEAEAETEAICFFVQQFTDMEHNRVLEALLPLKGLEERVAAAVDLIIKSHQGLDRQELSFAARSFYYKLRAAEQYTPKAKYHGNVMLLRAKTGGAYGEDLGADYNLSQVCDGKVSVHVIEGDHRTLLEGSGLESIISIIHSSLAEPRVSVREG

Compound | inhibition at 100 µM [%]
CCCS(=O)(=O)NCCNC(=O)Nc1cc(C(=O)N2CCC(c3ccc(C#N)cc3)CC2)ccc1C [Example 174, 3-[5-[4-(4-cyanophenyl)piperidine-1-carbonyl]-2-methyl-phenyl]-1-[2-(propylsulfonylamino)ethyl]urea] | 97.4
Cc1ccc(C(=O)N2CCC(c3ccc(C#N)cc3)CC2)cc1NC(=O)NCCNC(=O)C1CCCCC1 [Example 175, N-[2-[[5-[4-(4-cyanophenyl)piperidine-1-carbonyl]-2-methyl-phenyl]carbamoylamino]ethyl]cyclohexanecarboxamide] | 96.1
Cc1ccc(C(=O)N2CCC(c3ccc(C#N)cc3)CC2)cc1NC(=O)NCCN1CCCC1=O [Example 176, 1-[5-[4-(4-cyanophenyl)piperidine-1-carbonyl]-2-methyl-phenyl]-3-[2-(2-oxopyrrolidin-1-yl)ethyl]urea] | 92.6
COC(=O)[C@H](CNC(=O)Nc1cc(C(=O)N2CCC(c3ccc(C#N)cc3)CC2)ccc1C)NC(=O)OC(C)(C)C [Example 177, Methyl (2S)-3-[[5-[4-(4-cyanophenyl)piperidine-1-carbonyl]-2-methyl-phenyl]carbamoylamino]-2-[(2-methylpropan-2-yl)oxycarbonylamino]propanoate] | 94.8
Cc1ccc(C(=O)N2CCC(c3ccc(C#N)cc3)CC2)cc1NC(=O)NCCCN1CCCCCC1=O [Example 178, 1-[5-[4-(4-cyanophenyl)piperidine-1-carbonyl]-2-methyl-phenyl]-3-[3-(2-oxoazepan-1-yl)propyl]urea] | 95.9
CNC(=O)CCNC(=O)Nc1cc(C(=O)N2CCC(c3ccc(C#N)cc3)CC2)ccc1C [Example 179, 3-[[5-[4-(4-cyanophenyl)piperidine-1-carbonyl]-2-methyl-phenyl]carbamoylamino]-N-methyl-propanamide] | 89.2
Cc1ccc(C(=O)N2CCC(c3ccc(C#N)cc3)CC2)cc1NC(=O)N[C@@H](CCS(C)(=O)=O)C(=O)OC(C)(C)C [Example 180, tert-butyl (2S)-2-[[5-[4-(4-cyanophenyl)piperidine-1-carbonyl]-2-methyl-phenyl]carbamoylamino]-4-methylsulfonyl-butanoate] | 92
COC(=O)C1CCC(NC(=O)Nc2cc(C(=O)N3CCC(c4ccc(C#N)cc4)CC3)ccc2C)CC1 (stereo not drawn) [Example 181, Methyl 4-[[5-[4-(4-cyanophenyl)piperidine-1-carbonyl]-2-methyl-phenyl]carbamoylamino]cyclohexane-1-carboxylate] | 93.1
Cc1ccc(C(=O)N2CCC(c3ccc(C#N)cc3)CC2)cc1NC(=O)NC(C)CO (stereo not drawn) [Example 182, 1-[5-[4-(4-cyanophenyl)piperidine-1-carbonyl]-2-methyl-phenyl]-3-(1-hydroxypropan-2-yl)urea] | 96.2
Cc1ccc(C(=O)N2CCC(c3ccc(C#N)cc3)CC2)cc1NC(=O)NCC(C)O (stereo not drawn) [Example 183, 1-[5-[4-(4-cyanophenyl)piperidine-1-carbonyl]-2-methyl-phenyl]-3-(2-hydroxypropyl)urea] | 89.6
Cc1ccc(C(=O)N2CCC(c3ccc(C#N)cc3)CC2)cc1NC(=O)NCC(O)CO (stereo not drawn) [Example 184, 1-[5-[4-(4-cyanophenyl)piperidine-1-carbonyl]-2-methyl-phenyl]-3-(2,3-dihydroxypropyl)urea] | 81.7
Cc1ccc(C(=O)N2CCC(c3ccc(C#N)cc3)CC2)cc1NC(=O)NCCCCO [Example 185, 1-[5-[4-(4-cyanophenyl)piperidine-1-carbonyl]-2-methyl-phenyl]-3-(4-hydroxybutyl)urea] | 92.6
Cc1ccc(C(=O)N2CCC(c3ccc(C#N)cc3)CC2)cc1NC(=O)NC(CO)CO [Example 186, 1-[5-[4-(4-cyanophenyl)piperidine-1-carbonyl]-2-methyl-phenyl]-3-(1,3-dihydroxypropan-2-yl)urea] | 86.4
Cc1ccc(C(=O)N2CCC(c3ccc(C#N)cc3)CC2)cc1NC(=O)NCC(C)(C)CO [Example 188, 1-[5-[4-(4-cyanophenyl)piperidine-1-carbonyl]-2-methyl-phenyl]-3-(3-hydroxy-2,2-dimethyl-propyl)urea] | 89
Cc1ccc(C(=O)N2CCC(c3ccc(C#N)cc3)CC2)cc1NC(=O)NCCOCCO [Example 189, 1-[5-[4-(4-cyanophenyl)piperidine-1-carbonyl]-2-methyl-phenyl]-3-[2-(2-hydroxyethoxy)ethyl]urea] | 85.6
Cc1ccc(C(=O)N2CCC(c3ccc(C#N)cc3)CC2)cc1NC(=O)NC(C)(C)CO [Example 190, 1-[5-[4-(4-cyanophenyl)piperidine-1-carbonyl]-2-methyl-phenyl]-3-(1-hydroxy-2-methyl-propan-2-yl)urea] | 82.9
Cc1ccc(C(=O)N2CCC(c3ccc(C#N)cc3)CC2)cc1NC(=O)NCCCO [Example 191, 1-[5-[4-(4-cyanophenyl)piperidine-1-carbonyl]-2-methyl-phenyl]-3-(3-hydroxypropyl)urea] | 92.2

Compound | inhibition at 100 µM [%]
Cc1ccc(C(=O)N2CCC(c3ccc(C#N)cc3)CC2)cc1NC(=O)N[C@@H](CO)C(N)=O [Example 192, (2S)-2-[[5-[4-(4-cyanophenyl)piperidine-1-carbonyl]-2-methyl-phenyl]carbamoylamino]-3-hydroxy-propanamide] | 85.1
Cc1ccc(C(=O)N2CCC(c3ccc(C#N)cc3)CC2)cc1NC(=O)N[C@H]1CC[C@H](O)CC1 [Example 193, 1-[5-[4-(4-cyanophenyl)piperidine-1-carbonyl]-2-methyl-phenyl]-3-(4-hydroxycyclohexyl)urea] | 85.8
Cc1ccc(C(=O)N2CCC(c3ccc(C#N)cc3)CC2)cc1NC(=O)NC1(CO)CCCC1 [Example 194, 1-[5-[4-(4-cyanophenyl)piperidine-1-carbonyl]-2-methyl-phenyl]-3-[1-(hydroxymethyl)cyclopentyl]urea] | 84.3
Cc1ccc(C(=O)N2CCC(c3ccc(C#N)cc3)CC2)cc1NC(=O)NCC(O)COc1ccccc1Cl (stereo not drawn) [Example 196, 3-[3-(2-chlorophenoxy)-2-hydroxy-propyl]-1-[5-[4-(4-cyanophenyl)piperidine-1-carbonyl]-2-methyl-phenyl]urea] | 91.7
Cc1ccc(C(=O)N2CCC(c3ccc(C#N)cc3)CC2)cc1NC(=O)NC12CC3CC(CC(O)(C3)C1)C2 [Example 197, 1-[5-[4-(4-cyanophenyl)piperidine-1-carbonyl]-2-methyl-phenyl]-3-(3-hydroxy-1-adamantyl)urea] | 84.4
COC[C@@H](CO)NC(=O)Nc1cc(C(=O)N2CCC(c3ccc(C#N)cc3)CC2)ccc1C [Example 198, 1-[5-[4-(4-cyanophenyl)piperidine-1-carbonyl]-2-methyl-phenyl]-3-[(2R)-1-hydroxy-3-methoxy-propan-2-yl]urea] | 87.9
Cc1ccc(C(=O)N2CCC(c3ccc(C#N)cc3)CC2)cc1NC(=O)N[C@@H]1CCOC1 [Example 199, 1-[5-[4-(4-cyanophenyl)piperidine-1-carbonyl]-2-methyl-phenyl]-3-[(3R)-oxolan-3-yl]urea] | 96.3
Cc1ccc(C(=O)N2CCC(c3ccc(C#N)cc3)CC2)cc1NC(=O)NCCCc1cn[nH]c1C [Example 200, 1-[5-[4-(4-cyanophenyl)piperidine-1-carbonyl]-2-methyl-phenyl]-3-[3-(3-methyl-2H-pyrazol-4-yl)propyl]urea] | 91.8
CCc1ccc(C(=O)N2CCC(c3ccc(C#N)cc3)CC2)cc1NC(=O)NC(C)C [Example 201, 1-[5-[4-(4-cyanophenyl)piperidine-1-carbonyl]-2-ethyl-phenyl]-3-propan-2-yl-urea] | 94
Cc1ccc(C(=O)N2CCC(c3ccc(C#N)cc3)CC2)cc1NC(=O)NCC(C)(C)NS(C)(=O)=O [Example 202, 1-[5-[4-(4-cyanophenyl)piperidine-1-carbonyl]-2-methyl-phenyl]-3-(2-methanesulfonamido-2-methyl-propyl)urea] | 97.3
Cc1ccc(C(=O)N2CCC(c3ccc(C#N)cc3)CC2)cc1NC(=O)NCC(C)(C)N [Example 203, 3-(2-amino-2-methyl-propyl)-1-[5-[4-(4-cyanophenyl)piperidine-1-carbonyl]-2-methyl-phenyl]urea] | 91
CCS(=O)(=O)NC(C)(C)CNC(=O)Nc1cc(C(=O)N2CCC(c3ccc(C#N)cc3)CC2)ccc1C [Example 204, 3-[5-[4-(4-cyanophenyl)piperidine-1-carbonyl]-2-methyl-phenyl]-1-[2-(ethylsulfonylamino)-2-methyl-propyl]urea] | 91
Cc1ccc(C(=O)N2CCC(c3ccc(C#N)cc3)CC2)cc1NC(=O)NCC(C)(C)NC(=O)C(C)(C)C [Example 205, N-[1-[[5-[4-(4-cyanophenyl)piperidine-1-carbonyl]-2-methyl-phenyl]carbamoylamino]-2-methyl-propan-2-yl]-2,2-dimethyl-propanamide] | 88.2
Cc1ccc(C(=O)N2CCC(c3ccc(C#N)cc3)CC2)cc1NC(=O)NCCCNC(=O)OC(C)(C)C [Example 206, tert-butyl N-[3-[[5-[4-(4-cyanophenyl)piperidine-1-carbonyl]-2-methyl-phenyl]carbamoylamino]propyl]carbamate] | 83.8
Cc1ccc(C(=O)N2CCC(c3ccc(C#N)cc3)CC2)cc1NC(=O)NCCCN [Example 207, 3-(3-aminopropyl)-1-[5-[4-(4-cyanophenyl)piperidine-1-carbonyl]-2-methyl-phenyl]urea] | 89.7
Cc1ccc(C(=O)N2CCC(c3ccc(C#N)cc3)CC2)cc1NC(=O)NC1CCN(C(=O)OC(C)(C)C)CC1 [Example 208, tert-butyl 4-[[5-[4-(4-cyanophenyl)piperidine-1-carbonyl]-2-methyl-phenyl]carbamoylamino]piperidine-1-carboxylate] | 84.9
